We go through 22 compounds from patent EP0532097A1, “Piperazinyl(sulfon)amide derivatives of camphor as oxytocin antagonists” (MERCK & CO. INC., priority 1991, dated 1993).

The target of the first test is T1, uterine OT receptors (Rattus norvegicus, UniProt P70536).
T1 construct: using a crude membrane preparation of uteri; from tissue; host or cells: uterus of DES-treated rats, crude membrane preparation
T1 sequence (P70536 1-388): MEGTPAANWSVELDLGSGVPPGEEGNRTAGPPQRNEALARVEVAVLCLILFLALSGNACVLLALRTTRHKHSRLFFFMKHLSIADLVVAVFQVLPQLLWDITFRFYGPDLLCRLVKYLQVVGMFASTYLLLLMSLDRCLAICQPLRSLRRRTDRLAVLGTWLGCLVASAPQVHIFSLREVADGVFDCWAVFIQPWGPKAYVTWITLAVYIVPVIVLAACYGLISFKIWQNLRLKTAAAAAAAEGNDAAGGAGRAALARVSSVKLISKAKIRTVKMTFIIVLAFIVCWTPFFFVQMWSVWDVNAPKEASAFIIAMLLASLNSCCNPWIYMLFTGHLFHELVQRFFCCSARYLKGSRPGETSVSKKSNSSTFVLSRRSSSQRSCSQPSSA
Nature of the test: [³H]Oxytocin radioligand binding assay, crude membrane preparation of uteri from DES-treated rats. Conditions: at 100 nM.
Procedure: The high affinity binding of [³H] Oxytocin (OT)([tyrosyl, 3,5-[³H]OT; 30-60 Ci/mmol; New England Nuclear. Boston, MA) to uterine OT receptors was based on an assay (Fuchs, A-R; Fuchs, F; Soloff, MS. 1985 J. Clin. Endocrinol. Metab. 60:37) using a crude membrane preparation of uteri taken from diethylstilbestrol dipropionate (DES)-treated (0.3 mg/kg, ip; 18-24) rats. Competition studies were conducted at equilibrium (60 minutes; 22°C) using 1 nM[³H]OT in the following assay buffer: 50 mM Tris-HCl, 5 mM MgCl₂, and 0.1% BSA, pH 7.4. Nonspecific binding (10% of the total binding) was determined using 1 mM unlabeled OT and the binding reaction was terminated by filtration through glass fiber filters using a cell harvester (model 7019, Skatron, Inc., Sterling, VA). IC₅₀ (the concentration of tested compound that inhibits 50% of OT) was reported, unless otherwise noted.
For the compound “1-((7,7-Dimethyl-2-exo-hydroxy-2-endo-2-(1-(4-pyridinyl)methylamino)-propyl-bicyclo(2.2.1)heptan-1-yl)methanesulfonyl)-4-(2-methylphenyl)-piperazine [Example 27]”, the “inhibition at 100 nM” value is recorded as 37% inhibition at 100 nM.

The same test, now with this note: at 1,000 nM; 1 µM.
Consider “1-((7,7-Dimethyl-2-(3-acetamido-3-carboxy)propylidine-bicyclo(2.2.1)-heptan-1-yl)methanesulfonyl)-4-(2-methylphenyl)piperazine [Example 29]”, for which the “inhibition at 1,000 nM” value is 78% inhibition at 1,000 nM.

The test is the same for the next values; noted with them: competition with 1 nM [³H]OT, 60 minutes, 22°C; concentration that inhibits 50% of OT; read-out: IC50.
Turning to `COC(=O)[C@H]1C[C@H]2CC[C@]1(CS(=O)(=O)N1CCN(c3ccccc3C)CC1)C2(C)C` [Example 23, 1-((7,7-Dimethyl-2-endo-methoxycarbonyl-bicyclo-(2.2.1)heptan-1-yl)methanesulfonyl)-4-(2-methyl-phenyl)piperazine], the IC50 is 120 nM.

`Cc1ccccc1N1CCN(S(=O)(=O)C[C@]23CC[C@H](C[C@@H]2C(=O)O)C3(C)C)CC1` [Example 24, 1-((7,7-Dimethyl-2-endo-carboxy-bicyclo(2.2.1)heptan-1-yl)methane-sulfonyl)-4-(2-methylphenyl)piperazine]: the IC50 turned out to be 260 nM.

As for `Cc1ccccc1N1CCN(S(=O)(=O)CC23CCC(CC2=NO)C3(C)C)CC1` (stereo not shown) [Example 33, 1-((7,7-Dimethyl-2-oximino-bicyclo(2.2.1)heptan-1-yl)methanesulfonyl)-4-(2-methylphenyl)-piperazine], the IC50 was determined as 460 nM.

Take `Cc1ccccc1N1CCN(S(=O)(=O)C[C@]23CC[C@H](C[C@@H]2NC(=O)[C@@H](N)CCS(C)(=O)=O)C3(C)C)CC1` [Example 36, 1-((7,7-Dimethyl-2-endo-(2S-amino-4-(methylsulfonyl)-butyramido)-bicyclo(2.2.1)heptan-1-yl)methanesulfonyl)-4-(2-methylphenyl)piperazine]: the IC50 is 7.7 nM.

Staying with this test, now noted: read-out: inhibition at 100 nM.
On to `COC(=O)CCNCC(C)C1(O)CC2CCC1(CS(=O)(=O)N1CCN(c3ccccc3C)CC1)C2(C)C` (stereo not drawn) [Example 10, 1-((7,7-Dimethyl-2-exo-hydroxy-2-endo-2-(1-(2-methoxycarbonylethyl)-amino)propyl-bicyclo(2.2.1)heptan-1-yl)methanesulfonyl)-4-(2-methylphenyl)piperazine], for which the inhibition at 0.1 µM was 48%.

For `C=CC1(O)CC2CCC1(CS(=O)(=O)N1CCN(c3ccccc3C)CC1)C2(C)C` (stereo not drawn) [Example 12, 1-((7,7-dimethyl-2-exo-hydroxy-2-endo-ethenyl-bicyclo(2.2.1)heptan-1-yl)methanesulfonyl)-4-(2-methylphenyl)piperazine], the inhibition at 0.1 µM is 23%.

Take `Cc1ccccc1N1CCN(S(=O)(=O)CC23CCC(CC2=CCNC(=O)Cc2cnc[nH]2)C3(C)C)CC1` (stereo not shown) [Example 17, 1-((7,7-dimethyl-2-(2-(4(5)-imidazolylacetyl)amino)-ethylidine-bicyclo(2.2.1)heptan-1-yl)methane-sulfonyl)-4-(2-methylphenyl)piperazine]: the inhibition at 0.1 µM stood at 36%.

For `Cc1ccccc1N1CCN(S(=O)(=O)C[C@]23CC[C@H](C[C@@H]2C(=O)NCCc2cnc[nH]2)C3(C)C)CC1` [Example 25, 1-((7,7-Dimethyl-2-endo-(4-imidazolyl)ethylamino-carbonyl-bicyclo-(2.2.1)heptan-1-yl)methanesulfonyl)-4-(2-methylphenyl)piperazine], the inhibition at 0.1 µM was determined as 34%.

Regarding `CCOC(=O)C(CC=C1CC2CCC1(CS(=O)(=O)N1CCN(c3ccccc3C)CC1)C2(C)C)(NC(C)=O)C(=O)OCC` (stereo not shown) [Example 28, 1-((7,7-Dimethyl-2-(3-acetamido-3,3'-di(ethoxycarbonyl))propylidine-bicyclo(2.2.1)heptan-1-yl)methanesulfonyl)-4-(2-methylphenyl)piperazine], the inhibition at 0.1 µM came out at 35%.

On to `Cc1ccccc1N1CCN(S(=O)(=O)C[C@]23CC[C@H](C[C@@H]2NC(=O)[C@H](CCS(C)(=O)=O)NC(=O)OC(C)(C)C)C3(C)C)CC1` [Example 35, 1-((7,7-Dimethyl-2-endo-(2S-(tert-butyloxycarbonyl-amino)-4-(methyl-sulfonyl)-butyramido)-bicyclo(2.2.1)-heptan-1-yl)methanesulfonyl)-4-(2-methylphenyl)-piperazine], for which the inhibition at 0.1 µM amounted to 91%.

Staying with this test, now noted: read-out: inhibition at 1,000 nM.
Turning to `Cc1ccccc1N1CCN(S(=O)(=O)CC23CCC(CC2=CCN=[N+]=[N-])C3(C)C)CC1` (stereo not shown) [Example 15, 1-((7,7-dimethyl-2-(2-azido)ethylidine-bicyclo-(2.2.1)heptan-1-yl)methanesulfonyl)-4-(2-methyl-phenyl)piperazine], the inhibition at 1 µM was determined as 44%.

`Cc1ccccc1N1CCN(S(=O)(=O)CC23CCC(CC2=CCN)C3(C)C)CC1` (stereo not shown) [Example 16, 1-((7,7-dimethyl-2-(2-amino)ethylidine-bicyclo-(2.2.1)heptan-1-yl)methanesulfonyl)-4-(2-methyl-phenyl)piperazine]: the inhibition at 1 µM turned out to be 64%.

`Cc1ccccc1N1CCN(S(=O)(=O)CC23CCC(CC24CO4)C3(C)C)CC1` (stereo not shown) [Example 18, 1-((7,7-Dimethyl-2-spiro-epoxy-bicyclo(2.2.1)heptan-1-yl)methane-sulfonyl)-4-(2-methylphenyl)piperazine]: the inhibition at 1 µM stood at 75%.

For the compound `Cc1ccccc1N1CCN(S(=O)(=O)C[C@]23CC[C@H](C[C@]2(O)CNCC(C)C)C3(C)C)CC1` [Example 19, 1-((7,7-Dimethyl-2-exo-hydroxy-2-endo-isobutylamino-methyl-bicyclo(2.2.1)heptan-1-yl)methanesulfonyl)-4-(2-methylphenyl)piperazine], the inhibition at 1 µM turned out to be 31%.

As for `COC(=O)C1=CC2CCC1(CS(=O)(=O)N1CCN(c3ccccc3C)CC1)C2(C)C` (stereo not shown) [Example 20, 1-((7,7-Dimethyl-2-methoxycarbonyl-bicyclo(2.2.1)hept-2-en-1-yl)methanesulfonyl)-4-(2-methylphenyl)-piperazine], the inhibition at 1 µM came to 72%.

In the case of `Cc1ccccc1N1CCN(S(=O)(=O)CC23CCC(C=C2C(=O)O)C3(C)C)CC1` (stereo not shown) [Example 21, 1-((7,7-Dimethyl-2-carboxy-bicyclo(2.2.1)hept-2-en-1-yl)methanesulfonyl)-4-(2-methylphenyl)piperazine], the inhibition at 1 µM worked out at 38%.

`Cc1ccccc1N1CCN(S(=O)(=O)CC23CCC(C=C2C(=O)NCCc2cnc[nH]2)C3(C)C)CC1` (stereo not shown) [Example 22, 1-((7,7-Dimethyl-2-(4-imidazolyl)ethylaminocarbonyl-bicyclo(2.2.1)hept-2-en-1-yl)methanesulfonyl)-4-(2-methylphenyl)piperazine]: the inhibition at 1 µM amounted to 78%.

`Cc1ccccc1N1CCN(S(=O)(=O)C[C@]23CC[C@H](C[C@H]2O)C3(C)C)C(C)C1` (stereo partly drawn) [Example 32, 1-((7,7-Dimethyl-2-exo-hydroxy-bicyclo(2.2.1)heptan-1-yl)methane-sulfonyl)-4-(2-methylphenyl)-2-methyl-piperazine]: the inhibition at 1 µM stood at 37%.

The test is the same for the next values; noted with them: read-out: inhibition at 10,000 nM.
For `Cc1ccccc1N1CCN(S(=O)(=O)CC23CCC(CC2=O)C3(C)C)CC1=O` (stereo not shown) [Example 30, 1-((7,7-Dimethyl-2-oxo-bicyclo(2.2.1)heptan-1-yl)methanesulfonyl)-4-(2-methylphenyl)-3-piperazinone], the inhibition at 10 µM is 16%.

In the case of `Cc1ccccc1N1CCN(S(=O)(=O)CC23CCC(CC2=O)C3(C)C)C(C)C1=O` (stereo not shown) [Example 31, 1-((7,7-Dimethyl-2-oxo-bicyclo(2.2.1)heptan-1-yl)methanesulfonyl)-4-(2-methylphenyl)-2-methyl-3-piperazinone], the inhibition at 10 µM turned out to be 5%.

For orientation: IC50 means the concentration that gives 50% inhibition.
